Earlier results on two molecules are cited in paper PMC2887613 (ChemMedChem, 2009).

In data set [1] the target is T1, rat M4 (Rattus norvegicus, UniProt P08485).
T1 sequence (P08485 1-478): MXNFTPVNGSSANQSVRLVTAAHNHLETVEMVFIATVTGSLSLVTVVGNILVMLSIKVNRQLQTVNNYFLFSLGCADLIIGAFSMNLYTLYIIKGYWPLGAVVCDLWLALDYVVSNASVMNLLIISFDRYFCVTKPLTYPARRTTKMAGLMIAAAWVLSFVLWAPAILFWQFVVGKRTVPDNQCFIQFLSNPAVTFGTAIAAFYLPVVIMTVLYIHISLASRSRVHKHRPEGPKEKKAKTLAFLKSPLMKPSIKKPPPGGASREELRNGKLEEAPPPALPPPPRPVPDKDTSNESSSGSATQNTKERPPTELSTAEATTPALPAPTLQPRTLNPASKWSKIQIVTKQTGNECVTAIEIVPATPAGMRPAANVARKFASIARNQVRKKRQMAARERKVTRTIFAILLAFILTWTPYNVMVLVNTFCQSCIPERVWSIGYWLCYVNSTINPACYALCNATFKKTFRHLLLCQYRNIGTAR
Conditions: rat M4/Gqi5-expressing cells, first generation compounds.

For data set [2] the following is noted: lead compound.
Data set [3] deals with T1, rat M4.
The conditions of data set [4]: human, microsomes, 1.5 h.
For data set [5] the following is noted: rat, microsomes, 1.5 h.

Where two headings read alike, the source gives them in different places. Bounds are passed on as bounds.

`Cc1cc(C)c2c(N)c(C(=O)NCc3ccc(Cl)cc3)sc2n1` [Compd 1]: the brain penetration result was “lack of brain penetration”. Besides, the EC50 on rat M4 [1] is 400 nM. For the same molecule, the solubility result in data set [2] was “solubility issues”. At rat M4 [3] (Ca2+ mobilization assay in rat M4/Gqi5-expressing cells), the “leftward shift of an ACh CRC” value is 47 fold. In addition, at rat M4 [3] (first generation compounds, previously reported), the “ACh CRC fold-shift” value was 47 x.

As for `COc1ccc(CNC(=O)c2sc3nc(C)cc(C)c3c2N)cc1` [Compd 3], the parent remaining in data set [4] and in data set [5] was less than 10% throughout. Where the note is “in vivo”, the brain penetration entry is given as “centrally penetrating”.

One may read the EC50 as the midpoint of the concentration-response curve.
